For 16 compounds, T/C results are on record in PubChem BioAssay AID328 (DTP/NCI, 2004).

“And” between values parts separate entries of the source, which are not always exact repeats. Identical values can stand only once. Toxic doses and inconclusive results are not listed.

This experiment relates to BDF1 mice, P388 leukemia ip, median survival T/C. Briefly: NCI In Vivo Anticancer Drug Screen. Data for tumor model P388 Leukemia (intraperitoneal) in B6D2F1 (BDF1) mice. Conditions: endpoint: median survival time, higher = longer survival. An outline of the steps: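 Vehicle-dosed animals serve as the reference; survival of compound-dosed, tumour-implanted mice is divided by it.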

[1] abbreviates: dose: 12.5 mg/kg/injection, schedule: Q01DX009 (ip), vehicle: saline with Tween-80.
Where [2] appears, read: dose: 25.0 mg/kg/injection, schedule: Q01DX009 (ip), vehicle: saline with Tween-80.
[3] abbreviates: dose: 50.0 mg/kg/injection, schedule: Q01DX009 (ip), vehicle: Klucel (hydroxypropylcellulose) (HPC).
Where [4] appears, read: dose: 100.0 mg/kg/injection, schedule: Q04DX003 (ip), vehicle: saline with Tween-80.
The mark [5] stands for this setting: dose: 200.0 mg/kg/injection, schedule: Q04DX003 (ip), vehicle: saline with Tween-80.
Setting [6] is: dose: 400.0 mg/kg/injection, schedule: Q04DX003 (ip), vehicle: saline with Tween-80.
Where [7] appears, read: dose: 25.0 mg/kg/injection, schedule: Q01DX009 (ip), vehicle: saline.
[8] abbreviates: dose: 50.0 mg/kg/injection, schedule: Q01DX009 (ip), vehicle: saline.
[9] abbreviates: dose: 100.0 mg/kg/injection, schedule: Q01DX009 (ip), vehicle: saline.
Setting [10] is: dose: 12.5 mg/kg/injection, schedule: Q01DX009 (ip), vehicle: saline.
Where [11] appears, read: dose: 50.0 mg/kg/injection, schedule: Q01DX009 (ip), vehicle: saline with Tween-80.

With `NC(=S)NNC(=O)C(Cc1ccccc1)NC(=O)OCc1ccccc1` (stereo not drawn), the T/C was 100 % of control under setting [1] and 94 % of control under setting [2].
In the case of `CC(C#N)(Nc1ccccc1)c1ccc(Br)cc1` (stereo not drawn), the T/C by setting is: (dose: 100.0 mg/kg/injection, schedule: Q04DX003 (ip), vehicle: saline sonified) 104 % of control; (dose: 200.0 mg/kg/injection, schedule: Q04DX003 (ip), vehicle: saline sonified) 95 % of control; (dose: 400.0 mg/kg/injection, schedule: Q04DX003 (ip), vehicle: saline sonified) 95 % of control.
For `O=C(OC(=O)c1cccc(-c2ccccc2)c1)c1cccc(-c2ccccc2)c1`, the T/C under setting [3] was 104 % of control; the T/C (dose: 100.0 mg/kg/injection, schedule: Q01DX009 (ip), vehicle: Klucel (hydroxypropylcellulose) (HPC)) is 95 % of control; the T/C (dose: 200.0 mg/kg/injection, schedule: Q01DX009 (ip), vehicle: Klucel (hydroxypropylcellulose) (HPC)) was 95 % of control.
Turning to `O=C1C=CC(=C(c2ccccc2)c2ccccc2)C=C1`, the T/C was 95 % of control (dose: 12.5 mg/kg/injection, schedule: Q04DX003 (ip), vehicle: Klucel (hydroxypropylcellulose) (HPC)); 100 % of control (dose: 25.0 mg/kg/injection, schedule: Q04DX003 (ip), vehicle: Klucel (hydroxypropylcellulose) (HPC)); 91 % of control (dose: 50.0 mg/kg/injection, schedule: Q04DX003 (ip), vehicle: Klucel (hydroxypropylcellulose) (HPC)).
Regarding `CC(=N\O)/C(=N\O)C(=O)c1ccccc1`, the T/C is, setting by setting: (dose: 100.0 mg/kg/injection, schedule: Q01DX009 (ip), vehicle: other) 91 % of control; under setting [4], 95 % of control; under setting [5], 95 % of control; under setting [6], 90 % of control.
Regarding `O=C(NNc1ccccc1)OCc1ccccc1`, the T/C (dose: 12.5 mg/kg/injection, schedule: Q01DX009 (ip), vehicle: Klucel (hydroxypropylcellulose) (HPC)) was 100 % of control; the T/C (dose: 25.0 mg/kg/injection, schedule: Q01DX009 (ip), vehicle: Klucel (hydroxypropylcellulose) (HPC)) is 115 % of control; the T/C under setting [3] is 110 % of control; the T/C (dose: 75.0 mg/kg/injection, schedule: Q04DX003 (ip), vehicle: Klucel (hydroxypropylcellulose) (HPC)) is 95 % of control; the T/C (dose: 150.0 mg/kg/injection, schedule: Q04DX003 (ip), vehicle: Klucel (hydroxypropylcellulose) (HPC)) was 100 % of control; the T/C (dose: 300.0 mg/kg/injection, schedule: Q04DX003 (ip), vehicle: Klucel (hydroxypropylcellulose) (HPC)) is 90 % of control.
On to `CC(=O)NC(CC(=O)O)C(=O)O` (stereo not drawn), for which the T/C by setting is: under setting [7], 95 % of control; under setting [8], 95 % of control; under setting [9], 105 % of control.
Turning to `Nc1nnc[se]1`, the T/C under setting [1] was 116 % of control; the T/C under setting [10] was 96 % of control; the T/C under setting [2] was 151 % of control; the T/C under setting [7] was 122 % of control; the T/C under setting [11] was 164 % of control and 178 % of control.
As for `Cc1csc(NC(=O)Nc2ccc(F)cc2[N+](=O)[O-])n1`, the T/C was 110 % of control under setting [1], 88 % of control under setting [2] and 120 % of control under setting [11].
Take `CC(=O)OC1CCC2(C)C3=C(CCC2C1(C)C)C1(C)CCC(c2ccc(C(C)C)oc2=O)C1(C)CC3` (stereo not drawn): the T/C by setting is: (dose: 70.0 mg/kg/injection, schedule: Q01DX010 (ip), vehicle: carboxymethylcellulose (CMC)) 90 % of control; (dose: 140.0 mg/kg/injection, schedule: Q01DX010 (ip), vehicle: carboxymethylcellulose (CMC)) 90 % of control; (dose: 280.0 mg/kg/injection, schedule: Q01DX010 (ip), vehicle: carboxymethylcellulose (CMC)) 90 % of control.
As for `CCOC(=N)c1cn(C2OC(CO)C(O)C2O)c2ncnc(N)c12` (stereo not drawn), the T/C was 168 % of control (dose: 0.12 mg/kg/injection, schedule: Q01DX009 (ip), vehicle: saline with Tween-80); 174 % of control (dose: 0.22 mg/kg/injection, schedule: Q01DX009 (ip), vehicle: saline); 195 % of control (dose: 0.25 mg/kg/injection, schedule: Q01DX009 (ip), vehicle: saline with Tween-80); 196 % of control (dose: 0.33 mg/kg/injection, schedule: Q01DX009 (ip), vehicle: saline); 163 % of control (dose: 0.5 mg/kg/injection, schedule: Q01DX009 (ip), vehicle: saline with Tween-80); 186 % of control (dose: 0.5 mg/kg/injection, schedule: Q01DX009 (ip), vehicle: saline). Moreover, the T/C (dose: 0.5 mg/kg/injection, schedule: Q04DX003 (ip), vehicle: saline with Tween-80) is 150 % of control; the T/C (dose: 0.75 mg/kg/injection, schedule: Q01DX009 (ip), vehicle: saline) is 196 % of control; the T/C (dose: 0.8 mg/kg/injection, schedule: Q04DX003 (ip), vehicle: saline with Tween-80) is 190 % of control; the T/C (dose: 1.2 mg/kg/injection, schedule: Q04DX003 (ip), vehicle: saline with Tween-80) is 272 % of control; the T/C (dose: 1.8 mg/kg/injection, schedule: Q04DX003 (ip), vehicle: saline with Tween-80) was 190 % of control and 209 % of control; the T/C (dose: 2.6 mg/kg/injection, schedule: Q04DX003 (ip), vehicle: saline with Tween-80) is 200 % of control. Also, the T/C (dose: 6.0 mg/kg/injection, schedule: Q04DX003 (ip), vehicle: saline with Tween-80) was 90 % of control; the T/C (dose: 5.3 micrograms/kg/injection, schedule: Q01DX009 (ip), vehicle: saline) was 106 % of control; the T/C (dose: 8.0 micrograms/kg/injection, schedule: Q01DX009 (ip), vehicle: saline) is 115 % of control; the T/C (dose: 15.0 micrograms/kg/injection, schedule: Q01DX009 (ip), vehicle: saline with Tween-80) is 120 % of control; the T/C (dose: 27.0 micrograms/kg/injection, schedule: Q01DX009 (ip), vehicle: saline) was 152 % of control; the T/C (dose: 40.0 micrograms/kg/injection, schedule: Q01DX009 (ip), vehicle: saline) is 159 % of control. In addition, the T/C runs as follows: (dose: 60.0 micrograms/kg/injection, schedule: Q01DX009 (ip), vehicle: saline) 169 % of control; (dose: 66.0 micrograms/kg/injection, schedule: Q01DX009 (ip), vehicle: saline) 155 % of control; (dose: 100.0 micrograms/kg/injection, schedule: Q01DX009 (ip), vehicle: saline) 154 % of control.
On to `Cc1ccc([N+](=O)[O-])cc1NC(=O)SCCOC(=O)COc1ccc(Cl)cc1`, for which the T/C under setting [4] was 95 % of control, the T/C under setting [5] was 100 % of control and the T/C under setting [6] was 109 % of control.
With `CC(C)C1(C(=O)O)SCCCS1`, the T/C reads like this: (dose: 50.0 mg/kg/injection, schedule: Q04DX003 (ip), vehicle: alcohol) 115 % of control; (dose: 100.0 mg/kg/injection, schedule: Q04DX003 (ip), vehicle: alcohol) 115 % of control; (dose: 200.0 mg/kg/injection, schedule: Q04DX003 (ip), vehicle: alcohol) 105 % of control; (dose: 400.0 mg/kg/injection, schedule: Q04DX003 (ip), vehicle: alcohol) 105 % of control.
For `C=CCOc1ccccc1-c1nnn(C)n1`, the T/C is 95 % of control under setting [4], 97 % of control under setting [5] and 104 % of control under setting [6].
Turning to `Nc1[nH]c(=O)nc2nc[nH]c12`, the T/C is 112 % of control under setting [7], 98 % of control under setting [8] and 119 % of control under setting [9].
Consider `Brc1ccc(C[n+]2ccccc2)cc1`, for which the T/C by setting is: (dose: 6.25 mg/kg/injection, schedule: Q01DX009 (ip), vehicle: saline) 91 % of control; under setting [10], 87 % of control; under setting [7], 95 % of control; (dose: 25.0 mg/kg/injection, schedule: Q04DX003 (ip), vehicle: saline) 100 % of control.
